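Step 1: Grow cells in 96-well plates. Step 2: Expose to compound for 48 hours at 5 concentrations. Step 3: Interpolate endpoints linearly; if unreached, use highest concentration. TGI marks complete inhibition of growth.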
How the values were obtained:
Assay in all cases: NCI anticancer screen, dose series, 48 h
[1] = system: RXF 393 renal
[2] = system: NCI-H522 lung
[3] = system: SF-539 CNS
[4] = system: LOX IMVI melanoma
[5] = system: U251 CNS
[6] = system: K-562 leukemia
[7] = system: SF-295 CNS
[8] = system: SK-MEL-5 melanoma
[9] = system: HCT-116 colon
[10] = system: TK-10 renal
[11] = system: HL-60(TB) leukemia
[12] = system: MALME-3M melanoma
[13] = system: KM12 colon
[14] = system: M14 melanoma
[15] = system: NCI-H460 lung
[16] = system: OVCAR-5 ovarian
[17] = system: DMS 273 small cell lung
[18] = system: IGROV1 ovarian
[19] = system: UACC-257 melanoma
[20] = system: A549 NSCLC
[21] = system: HT29 colon
[22] = system: SNB-78 CNS
[23] = system: LXFL 529 NSCLC
[24] = system: RPMI-8226 leukemia
[25] = system: UACC-62 melanoma
[26] = system: OVCAR-3 ovarian
[27] = system: NCI-H23 lung
[28] = system: DMS 114 small cell lung
[29] = system: HOP-62 NSCLC
[30] = system: SN12C renal
[31] = system: M19-MEL melanoma
[32] = system: MOLT-4 leukemia
[33] = system: SNB-75 CNS
[34] = system: OVCAR-8 ovarian
[35] = system: HOP-18 NSCLC
[36] = system: COLO 205 colon
[37] = system: SR leukemia
[38] = system: XF 498 CNS
[39] = system: KM20L2 colon
[40] = system: SK-MEL-2 melanoma
[41] = system: OVCAR-4 ovarian
[42] = system: 786-0 renal
[43] = system: SK-OV-3 ovarian
[44] = system: DLD-1 colon
[45] = system: ACHN renal
[46] = system: SK-MEL-28 melanoma
[47] = system: UO-31 renal
[48] = system: EKVX NSCLC
[49] = system: HCC-2998 colon
[50] = system: HCT-15 colon
[51] = system: SNB-19 CNS
[52] = system: SF-268 CNS
[53] = system: NCI-H226 lung
[54] = system: CCRF-CEM leukemia
[55] = system: SW-620 colon
[56] = system: CAKI-1 renal
[57] = system: HOP-92 NSCLC
[58] = system: A498 renal

Q: How did the TGI [1] turn out when `C[Si](C)(c1ccccc1)C1CC(=O)CC(=O)C1` was run?
A: > 100 µM

Q: What about the TGI [2] of the same molecule?
A: 60.8 µM

Q: What about the TGI [3] of the same molecule?
A: 34.4 µM

Q: And the TGI [4]?
A: 42.5 µM

Q: What about the TGI [5] of the same molecule?
A: > 100 µM

Q: What about the TGI [6] of the same molecule?
A: > 100 µM

Q: What about the TGI [7] of the same molecule?
A: > 100 µM

Q: What about the TGI [8] of the same molecule?
A: > 100 µM

Q: And the TGI [9]?
A: > 100 µM

Q: And the TGI [10]?
A: > 100 µM

Q: What about the TGI [11] of the same molecule?
A: 43.3 µM

Q: What about the TGI [12] of the same molecule?
A: > 100 µM

Q: What about the TGI [13] of the same molecule?
A: > 100 µM

Q: What about the TGI [14] of the same molecule?
A: > 100 µM

Q: And the TGI [15]?
A: > 100 µM

Q: What about the TGI [16] of the same molecule?
A: > 100 µM

Q: And the TGI [17]?
A: > 100 µM

Q: And the TGI [18]?
A: 48.3 µM

Q: What about the TGI [19] of the same molecule?
A: > 100 µM

Q: And the TGI [20]?
A: > 100 µM

Q: What about the TGI [21] of the same molecule?
A: > 100 µM

Q: And the TGI [22]?
A: > 100 µM

Q: What about the TGI [23] of the same molecule?
A: > 100 µM

Q: And the TGI [24]?
A: > 100 µM

Q: What about the TGI [25] of the same molecule?
A: > 100 µM

Q: And the TGI [26]?
A: > 100 µM

Q: And the TGI [27]?
A: > 100 µM

Q: What about the TGI [28] of the same molecule?
A: > 100 µM

Q: What about the TGI [29] of the same molecule?
A: > 100 µM

Q: What about the TGI [30] of the same molecule?
A: > 100 µM

Q: And the TGI [31]?
A: > 100 µM

Q: What about the TGI [32] of the same molecule?
A: > 100 µM

Q: And the TGI [33]?
A: > 100 µM

Q: And the TGI [34]?
A: > 100 µM

Q: And the TGI [35]?
A: > 100 µM

Q: What about the TGI [36] of the same molecule?
A: > 100 µM

Q: What about the TGI [37] of the same molecule?
A: > 100 µM

Q: What about the TGI [38] of the same molecule?
A: > 100 µM

Q: And the TGI [39]?
A: > 100 µM

Q: What about the TGI [40] of the same molecule?
A: > 100 µM

Q: And the TGI [41]?
A: > 100 µM

Q: And the TGI [42]?
A: 49.9 µM

Q: And the TGI [43]?
A: > 100 µM

Q: What about the TGI [44] of the same molecule?
A: > 100 µM

Q: And the TGI [45]?
A: > 100 µM

Q: And the TGI [46]?
A: > 100 µM

Q: And the TGI [47]?
A: 37.6 µM

Q: What about the TGI [48] of the same molecule?
A: > 100 µM

Q: And the TGI [49]?
A: > 100 µM

Q: And the TGI [50]?
A: > 100 µM

Q: What about the TGI [51] of the same molecule?
A: > 100 µM

Q: What about the TGI [52] of the same molecule?
A: > 100 µM

Q: What about the TGI [53] of the same molecule?
A: > 100 µM

Q: And the TGI [54]?
A: > 100 µM

Q: What about the TGI [55] of the same molecule?
A: > 100 µM

Q: What about the TGI [56] of the same molecule?
A: > 100 µM

Q: How did the TGI [1] turn out when `O=C(/C=C/c1ccc(Br)cc1)c1ccc(NCc2nc3ccccc3[nH]2)cc1` was run?
A: 24.4 µM

Q: And the TGI [2]?
A: 19.4 µM

Q: And the TGI [3]?
A: 24.3 µM

Q: And the TGI [57]?
A: 28.3 µM

Q: And the TGI [4]?
A: 6.91 µM

Q: And the TGI [5]?
A: > 36.8 µM

Q: And the TGI [6]?
A: > 37.3 µM

Q: What about the TGI [7] of the same molecule?
A: > 46.3 µM

Q: And the TGI [8]?
A: > 46.8 µM

Q: And the TGI [9]?
A: > 49.1 µM

Q: And the TGI [10]?
A: > 55.3 µM

Q: What about the TGI [11] of the same molecule?
A: > 22.9 µM

Q: What about the TGI [12] of the same molecule?
A: > 100 µM

Q: And the TGI [13]?
A: > 100 µM

Q: What about the TGI [14] of the same molecule?
A: > 100 µM

Q: And the TGI [15]?
A: > 42.2 µM

Q: And the TGI [16]?
A: > 100 µM

Q: What about the TGI [17] of the same molecule?
A: > 54.6 µM

Q: What about the TGI [18] of the same molecule?
A: > 76.3 µM

Q: What about the TGI [19] of the same molecule?
A: > 63.4 µM

Q: What about the TGI [20] of the same molecule?
A: > 54.7 µM

Q: What about the TGI [21] of the same molecule?
A: 27.4 µM

Q: What about the TGI [22] of the same molecule?
A: 16.6 µM

Q: And the TGI [23]?
A: > 46.2 µM

Q: And the TGI [25]?
A: > 76.2 µM

Q: And the TGI [26]?
A: > 100 µM

Q: And the TGI [27]?
A: > 42.5 µM

Q: And the TGI [28]?
A: > 37.5 µM

Q: And the TGI [29]?
A: > 61.2 µM

Q: What about the TGI [30] of the same molecule?
A: 66.5 µM

Q: And the TGI [31]?
A: > 100 µM

Q: What about the TGI [32] of the same molecule?
A: 39.9 µM

Q: What about the TGI [33] of the same molecule?
A: 20.6 µM

Q: What about the TGI [34] of the same molecule?
A: > 52.6 µM

Q: And the TGI [35]?
A: > 100 µM

Q: And the TGI [36]?
A: 13 µM

Q: And the TGI [37]?
A: 84.6 µM

Q: And the TGI [58]?
A: > 87.1 µM

Q: And the TGI [38]?
A: 49.3 µM

Q: And the TGI [39]?
A: > 100 µM

Q: And the TGI [40]?
A: > 82.1 µM

Q: What about the TGI [41] of the same molecule?
A: > 62.6 µM

Q: And the TGI [42]?
A: > 56.2 µM

Q: And the TGI [43]?
A: > 69.3 µM

Q: What about the TGI [44] of the same molecule?
A: > 67.4 µM

Q: What about the TGI [45] of the same molecule?
A: 81.2 µM

Q: What about the TGI [46] of the same molecule?
A: > 100 µM

Q: And the TGI [47]?
A: 31.2 µM

Q: And the TGI [48]?
A: > 100 µM

Q: And the TGI [49]?
A: 88.5 µM

Q: And the TGI [50]?
A: 17.3 µM

Q: What about the TGI [51] of the same molecule?
A: > 53.5 µM

Q: What about the TGI [52] of the same molecule?
A: 33 µM

Q: What about the TGI [53] of the same molecule?
A: 54.3 µM

Q: What about the TGI [54] of the same molecule?
A: > 40.1 µM

Q: What about the TGI [55] of the same molecule?
A: 21.2 µM

Q: What about the TGI [56] of the same molecule?
A: > 57.4 µM
